This note sets out measurements from patent US5843941A, “Ras farnesyl transferase inhibitors” (Genentech, Inc., priority 1994, dated 1998).

The test system of one experiment is MCF-231 cells. As to the kind of experiment: Growth inhibition of human tumor line MCF-231. The settings on record: MCF-231, breast (human), ras transformed, read-out: % growth inhib. Format: cell-based. Here is the method: (§1) To examine the effects of farnesyltransferase inhibition on cell growth, three cell lines (ras-transformed rat-1, src-transformed rat-1, and parental rat-1 cells) were seeded (see FIG. 7) at low density and allowed to grow for 10 days in the absence or presence of increasing concentrations of BZA-5B (compound 37). See Example 128 for description of cells. On day 0, cells were plated in monolayer culture at 2×10^3 cells per well (24-well plates) in 1 ml DMEM supplemented with 10% fetal calf serum, 100 U/ml penicillin, 100 μg/ml streptomycin, 0.5 mM DTT, 0.025% DMSO, and the indicated concentration of BZA-5B (compound 37). On days 3 and 7, cells were washed and refed with the same medium. At the time indicated in FIG. 7, cells were harvested by trypsinization and counted in a Coulter counter. Panels A, C, E show the growth rate of each cell line in the absence of inhibitor. Panels B, D, F show the inhibition of growth as a function of concentration of BZA-5B at each time point. […]
(§2) To examine the effects of farnesyltransferase inhibition on the growth of human tumor cell lines, several such lines were treated with 25 μM BZA-5B (compound 37B) using a procedure similar to that described in Example 129 above. Cells were refed with fresh media at days 3 and 6 containing the inhibitor, and were harvested and counted as described above. […]

In another experiment the test system is HT-1080 cells. Kind of experiment: Growth inhibition of human tumor line HT-1080. Format: cell-based. The settings on record: HT-1080, fibrosarcoma, ras transformed, read-out: % growth inhib. How it is done: as §1, §2
In the next experiment the test system is MDA-7 cells. Kind of experiment: Growth inhibition of human tumor line MDA-7. It counts as cell-based. The settings on record: MDA-7, breast, not ras transformed, read-out: % growth inhib. Here is the method: as §1, §2
The test system of the next experiment is SW-480 cells. Kind of experiment: Growth inhibition of human tumor line SW-480. The note with it: SW480, SW-480, colon, ras transformed, read-out: % growth inhib. Format: cell-based. Here is the method:
as §1, §2

Experiment [1] deals with Ras proteins in Met18b-2 cells. As to the kind of experiment: Incorporation of [3H]mevalonate into immunoprecipitated Ras proteins in Met18b-2 cells. Format: cell-based, Chinese hamster. Here is the method: In each experiment, aliquots of the Triton X-100 fraction (300 μg protein, prepared as described above) were incubated with 1 μg anti-Ras monoclonal antibody (Oncogene Sciences, Inc.) overnight at 4° C. on a rotating platform. Immune complexes were precipitated by addition of 25 μl Protein A-agarose suspension that had been pre-coated with goat anti-rat IgG (Oncogene Sciences, Inc.) according to the manufacturer's instructions. After a 30 min incubation at 4° C., the agarose beads were pelleted by centrifugation and washed 5 times with 1 ml each of wash solution (50 mM Tris-HCl, 50 mM NaCl, 0.5% (w/v) deoxycholate, 0.5% (v/v) Nonidet P-40, and 0.1% (w/v) SDS at pH 7.5). 75 μl of 1X SDS sample buffer was added and each sample heated for 5 min at 95° C. before electrophoresis as above.

For experiment [2], the system named is HT 1080 human tumor cells in nude mouse. Kind of experiment: Survival of nude mice after intraperitoneal implantation of HT 1080 human tumor cells. It counts as in vivo. The note with it: 20 mg/kg daily. Here is the method:
Implantation of […] HT 1080 cells in the peritoneal cavity of the nude mouse allows seeding and growth of tumor cell masses within the peritoneum. […] In this experiment, fourteen nude mice were injected on day 0 with […] HT 1080 cells via intraperitoneal injection. Half the animals (seven) immediately began receiving daily treatment with Compound 37B at 20 mg/kg (formulated in approx. 0.25 ml of 1% DMSO, 20% glycerol, 10 mM NaOAc, 130 mM NaCl, pH 4.5). The other seven animals received daily injection of the above vehicle alone.

Experiment [3] concerns src-transformed rat-1 fibroblasts. As to the kind of experiment: Changes in morphology of src-transformed cells. It counts as cell-based. The note with it: FIG. 6C/6D. Here is the method:
Compound 27A (denoted as BG269A in the figure) and compound 27B (denoted as BG269B in the figure) were added at 250 μM to test whether these compounds would induce reversion to a more normal phenotype as had been previously shown with microinjection of anti-Ras antibodies (see Feramisco, J. R. et al Nature 314, 639 (1985)). The H-ras transformed cells, denoted as rat 2.2 cells, were generated by transfection of rat-1 fibroblasts as described (see Seeburg, P. H., Colby, W. W., Capon, D. J., Goeddel, D. V., and Levinson, A. D. Nature 312,71 (1984)). Cells that overgrew the monolayer were extracted and plated onto agar to obtain a cell line displaying a fully transformed phenotype. Untransformed rat-1 fibroblasts and src-transformed rat-1 fibroblasts were also treated. The src-transformed cells were generated by co-transfection of rat-1 fibroblasts with pSV3.Neo.src, a vector containing the gene for src as well as the gene that confers G418 resistance, both under control of SV40 early promoters. G418-resistant cell clones that diplayed a transformed phenotype were used to generate the cell line. On day 0, cells were plated in monolayer culture at 3×10^3 cells per well (24-well plates) in 1 ml DMEM supplemented with 10% FCS, 100 U/ml penicillin, 10 μg/ml streptomycin, 2% DMSO, and 0.5 mM DTT with and without 200 μM inhibitor. On day 3, the cells were refed with the same medium. […]

Structures are written as SMILES. “Also recorded” adds a separate entry of the source.

For `COC(=O)[C@H](CCSC)NC(=O)CN1C(=O)C(N(C)C(=O)[C@@H](N)CS)N=C(c2ccccc2)c2ccccc21` (single isomer, unassigned) [37B], the inhibition at 25 µM was 58% with MCF-231 cells, 64% with HT-1080 cells, 0% with MDA-7 cells and 45% in the experiment on SW-480 cells. Also, the “incorporation of [3H]mevalonate into immunoprecipitated ras proteins” value in experiment [1] (50 μM, FIG. 5, lanes 7-9) is “abolished incorporation of [3H] mevalonate into immunoprecipitated ras proteins”. The minimal effective concentration in experiment [1] (Cricetulus griseus, FIG. 5, read-out: concentration at which inhibition of incorporation into ras proteins was readily detectable) was determined as 10 µM. Also, the “mortality / survival of mice with IP tumor” value in experiment [2] (over 25 days, FIG. 8) is recorded as “caused a reduction in mortality over 25 days; also recorded: blocked the rapid mortality associated with IP implantation of tumor cells”. Further, the “tumor cell masses in the peritoneum at end of treatment” value in experiment [2] (dissection of all treated animals) was “all of the treated animals showed the presence of tumor cell masses in the peritoneum”.
Take `CSCC[C@H](NC(=O)CN1C(=O)C(N(C)C(=O)[C@@H](N)CS)N=C(c2ccccc2)c2ccccc21)C(=O)O` (single isomer, unassigned) [27B]: the “effect on morphology of src-transformed cells” value in experiment [3] is reported as “not affected”.
